Data from patent US5972956A, “Inhibition of amyloidosis by 9-acridinones” (Warner-Lambert Company, priority 1998, dated 1999).

Molecular target: T1, beta amyloid peptide (1-40) (Homo sapiens, UniProt P05067)
T1 construct: beta amyloid peptide (1-40)
Assay: in vitro amyloid aggregation assay (filtration of I125-labeled peptide aggregates)
Assay type: biochemical
Details: beta amyloid peptide (1-40) with I125 labeled peptide, sodium phosphate buffer pH 6.0, 2 hours at room temperature; read-out: IC50, concentration required to cause a 50% inhibition of amyloid aggregation
Protocol: The ability of the 9-acridinone compounds of the above formula to inhibit amyloid aggregation has been established in a standard in vitro assay. The assay is carried out by mixing beta amyloid peptide (1-40) with radioiodinated (I^125) labeled peptide to a concentration of 2.5 mg/mL in hexafluoroisopropanol. The mixture is diluted 1 to 5 with water (v/v). […] of the solution is mixed with 25 μL of 25 mM sodium phosphate buffer pH 6.0. The mixture is allowed to aggregate for 2 hours at room temperature with and without a test compound present. The mixtures are then diluted to 235 μL with phosphate buffer to stop the aggregation process. The solutions are passed through a 0.2-μm millipore filtermat. Aggregated protein remains in the filter well. The filter plate is washed with 50 μL of phosphate buffer and then soaked in solid gel scintillant and counted on a Microbeta counter to determine the amount of aggregation in the presence of a test compound versus control with no test compound.
Several representative 9-acridinone compounds have been evaluated in the above assay and shown to inhibit amyloid aggregation. The following table presents the activity of selected compounds, reported as the molar concentration of compounds required to cause a 50% inhibition (IC50) of amyloid aggregation in the above assay.

T1 sequence (P05067 672-711 limits assumed): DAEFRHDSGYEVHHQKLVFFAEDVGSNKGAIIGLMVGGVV

Structure (SMILES) | IC50 [µM]
CCN(CC)CCCNc1ccc([N+](=O)[O-])c2[nH]c3ccc(OC)cc3c(=O)c12 [compound 5] | 21
CCN(CC)CCNc1ccc([N+](=O)[O-])c2c1c(=O)c1cc(OC)ccc1n2C [compound 12] | 23.2
CCN(CC)CCNc1ccc([N+](=O)[O-])c2[nH]c3ccc(OCCN(CC)CC)cc3c(=O)c12 [compound 7] | 35.6
CCN(CC)CCNc1ccc([N+](=O)[O-])c2[nH]c3ccccc3c(=O)c12 [compound 11] | 29.5
CCOc1ccc2[nH]c3c([N+](=O)[O-])ccc(NC(C)CN(C)C)c3c(=O)c2c1 (stereo not shown) [compound 13] | 24.3
CCCCOc1ccc2[nH]c3c([N+](=O)[O-])ccc(NCCN(C)C)c3c(=O)c2c1 [compound 4] | 25

Now from value to compound:

IC50 [µM] | Structure (SMILES)
20.5 | CCN(CC)CCNc1ccc([N+](=O)[O-])c2[nH]c3ccc(O)cc3c(=O)c12 [Compound No. 9]
7.1 | CSc1ccc2[nH]c3c([N+](=O)[O-])ccc(NCCCN(C)C)c3c(=O)c2c1 [compound 1]
11 | CCN(CC)CCNc1ccc([N+](=O)[O-])c2[nH]c3cc(OC)c(OC)cc3c(=O)c12 [compound 3]
20 | CCOc1ccc2[nH]c3c([N+](=O)[O-])ccc(NCCN(CCO)CCO)c3c(=O)c2c1 [compound 8]
9 | CCN(CC)CCNc1ccc([N+](=O)[O-])c2[nH]c3ccc(SC)cc3c(=O)c12 [compound 2]
18.7 | CCN(CC)CCNc1ccc([N+](=O)[O-])c2[nH]c3cc(Cl)c(OC)cc3c(=O)c12 [compound 6]
13.9 | CCN(CC)CCNc1ccc([N+](=O)[O-])c2[nH]c3ccc(OC)cc3c(=O)c12 [compound 10]
